Assay [1] concerns the target T1, histamine receptor subtype 1 (H1R) (Homo sapiens, UniProt P35367). Put plainly: Antagonist pretreatment against the histamine-induced DMR signal in A431 cells. It is filed as cell-based. More on the design: endogenous in cells; host or cells: A431 (human epidermoid carcinoma), quiescent after serum starvation. The settings on record: pretreatment of A431 with compound at 1 μM.

The subject of assay [2] is endogenous receptors in A431 cells. Put plainly: LOPAC library agonist screening with biosensor cellular assay (DMR). The format is cell-based, human. The settings on record: for identification of beta-adrenoceptor agonists as hits in the agonist screen: 1 microM. The procedure:
(§1) Corning® Epic® wavelength interrogation system was used.
Furthermore, a ligand-induced DMR is a real time kinetic response containing many useful parameters (e.g., phases, amplitudes and kinetics) for analyzing ligand pharmacology. The LOPAC library was used to screen agonists for endogenous receptors in A431 cells using real time kinetic measurements.
First, the response in terms of wavelength shift between before and 2 min after stimulation was calculated.
Second, the responses in terms of wavelength shift between before and 50 min after stimulation were calculated.
Third, the responses in terms of wavelength shift between 2 min and 50 min after stimulation were calculated. The difference in resonant wavelength between the two time points was plotted as a function of compounds (FIG. 8).

In assay [3] the target is T2, β2-adrenergic receptor (β2AR) (Homo sapiens, UniProt P07550). The settings on record: for type of DMR signal induced: A431 cells, 2 nanomolar in b161/b162.
Source text: as §1
A431 endogenously expresses large numbers of the β2AR, but neither β1 nor β3-ARs. […] The DMR signal consists of a small decreased signal (i.e., N-DMR) with a short duration, followed by an increased signal (i.e., P-DMR) to an elevated level.

For assay [4], the target named is T2, β2-adrenergic receptor (β2AR). The settings on record: co-stimulation with 2 nM epinephrine and 1 μM histamine; high doses.
Assay [5] addresses T1, histamine receptor subtype 1 (H1R). Put plainly: Dual receptor-specific antagonist screening (LOPAC), histamine response. It is filed as cell-based. More on the design: endogenous in cells; host or cells: A431 (human epidermoid carcinoma), quiescent after serum starvation.
Assay [6] has as its target T2, β2-adrenergic receptor (β2AR). As to the kind of experiment: Dual receptor-specific antagonist screening (LOPAC), epinephrine response. The format is cell-based. Set-up: A431 cells endogenously express both PAR1 and β2AR; endogenous in cells; host or cells: A431 (human epidermoid carcinoma), quiescent after serum starvation.
Where [7] appears, read: A431 cells, compound at 1 microM, real time kinetic.
Where [8] appears, read: compound 1 microM for one hour, then cocktail of epinephrine and histamine.

Like-named read-outs stand apart in the source and are kept apart here.

Experimental findings from patent US8759013B2, “Dual-target biosensor cell assays” (Corning Incorporated, priority 2008, dated 2014) are described below.

T1 sequence (P35367 whole entry): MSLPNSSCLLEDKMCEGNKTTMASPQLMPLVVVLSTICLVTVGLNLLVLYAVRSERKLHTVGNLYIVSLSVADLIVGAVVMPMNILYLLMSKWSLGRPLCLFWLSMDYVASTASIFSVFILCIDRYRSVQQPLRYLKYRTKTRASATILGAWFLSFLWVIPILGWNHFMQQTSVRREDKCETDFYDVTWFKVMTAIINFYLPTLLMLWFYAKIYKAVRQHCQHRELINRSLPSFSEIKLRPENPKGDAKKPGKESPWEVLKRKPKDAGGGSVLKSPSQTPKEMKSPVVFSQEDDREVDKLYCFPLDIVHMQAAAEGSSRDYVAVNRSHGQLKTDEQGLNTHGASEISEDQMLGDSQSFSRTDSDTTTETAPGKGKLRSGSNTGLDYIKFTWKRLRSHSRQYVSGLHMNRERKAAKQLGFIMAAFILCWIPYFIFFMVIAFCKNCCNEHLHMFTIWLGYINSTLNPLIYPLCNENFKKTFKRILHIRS

With `S=C(NC1CCCCC1)N1CCC(c2cnc[nH]2)CC1` [thioperamide], the “effect on the DMR signal induced by 1 μM histamine” value (from here on “effect on the DMR signal induced”) in assay [1] is reported as “did not have obvious impact”. As for Ruthernium red, in assay [2] (setting [7]), the “ligand-induced DMR signal in agonist screening” value (shortened to “ligand-induced DMR signal”) was “Gs-like DMR signal but with much larger amplitude”. With `CN(C)CC[C@@H](c1ccc(Cl)cc1)c1ccccn1` [(+)-chlorpheniramine], the “ligand-induced DMR signal” value in assay [2] (setting [7]) was “did not lead to any DMR signal”. As for `CNC[C@H](O)c1ccc(O)c(O)c1` [epinephrine], the “type of DMR signal induced” value in assay [3] was “Gs-type DMR signal”; in assay [3] (listed as Epinephrine), “biphasic Gs-type DMR response”. In assay [3] (quiescent A431 cells, n=10), the “Hill slope of the epinephrine DMR response” value is 0.95. Further, the “effect of pretreatment on the epinephrine response” value in assay [4] is “completely inhibited”. Take `CN(C)CCC(c1ccc(Cl)cc1)c1ccccn1` (racemic) [(±)chlorpheniramine]: the “ligand-induced DMR signal” value in assay [2] (setting [7]) is “did not lead to any DMR signal”.

For the compound `COc1ccc(CN(CCN(C)C)c2ccccn2)cc1` [pyrilamine], the “ligand-induced DMR signal” value in assay [2] (setting [7]) is “did not lead to any DMR signal”. Still for that read-out and setting: for `N=C(N)SCCc1cnc[nH]1` [imetit] the value was “did not lead to any obvious DMR signal”; for `CC(C)NCC(O)c1ccc(O)c(O)c1` (stereo not drawn) [R(−)isoproterenol], “typical Gs-type DMR signal”; for `CC(C)NCC(O)COc1cccc2ccccc12` (racemic) [(±)-propranolol], “did not result in any apparent DMR signals”. As for R(−)-α-methyl-histamine, the “ligand-induced DMR signal” value in assay [2] was “did not lead to any obvious DMR signal”. As for `CN(C)CC[C@@H](c1ccc(Br)cc1)c1ccccn1` [(+)-brompheniramine], the “effect on the histamine response in the co-stimulation” value (“effect on the histamine response” for short) in assay [5] is given as “completely or almost completely attenuated”. Also, the “ligand-induced DMR signal” value in assay [2] (setting [7]) is on record as “did not lead to any DMR signal”. For `CC(COc1ccccc1)N(CCCl)Cc1ccccc1` (centres unmarked) [phenoxybenzamine], the “effect on the histamine response” value in assay [5] is recorded as “almost completely inhibited”. Moreover, the “effect on the epinephrine response in the co-stimulation” value (“effect on the epinephrine response” for short) in assay [6] (setting [8]) is given as “little effect”.

As to `Cc1ccc(OCC(O)C(C)NC(C)C)c2c1CCC2` (centres unmarked) [ICI 118,551], the “effect on the histamine response” value in assay [5] (setting [8]) is reported as “little impact”. The “ligand-induced DMR signal” value in assay [2] (setting [7]) is on record as “did not result in any apparent DMR signals”. As to `CCc1ccccc1OC[C@@H](O)CN[C@H]1CCCc2ccccc21` [SR 59230A], the “effect on the histamine response” value in assay [5] (setting [8]) is “little impact”. For the same compound, the “ligand-induced DMR signal” value in assay [2] (setting [7]) is recorded as “did not result in any apparent DMR signals”. In addition, the “effect on the epinephrine response” value in assay [6] (setting [8]) is reported as “inhibited or partially attenuated”. As to `CC(C)(C(=O)O)c1ccc(C(O)CCCN2CCC(C(O)(c3ccccc3)c3ccccc3)CC2)cc1` (centres unmarked) [fexofenadine], the “ligand-induced DMR signal” value in assay [2] (setting [7]) was “did not lead to any DMR signal”. `CN1CCC(=C2c3ccccc3CC(=O)c3sccc32)CC1` [ketotifen]: the “ligand-induced DMR signal” value in assay [2] (setting [7]) is given as “did not lead to any DMR signal”. On to `CNCCCC12CCC(c3ccccc31)c1ccccc12` [maprotiline], for which, in assay [6] (setting [8]), the “effect on the epinephrine response” value is “little effect”. With `NC(N)=Nc1nc(CSCCC(N)=NS(N)(=O)=O)cs1` [famotidine], in assay [2] (setting [7]), the “ligand-induced DMR signal” value is “DMR that was similar to pindolol”. Also, the “effect on the epinephrine response” value in assay [6] (setting [8]) is on record as “partial desensitization”. With (±)isoproterenol, in assay [2] (setting [7]), the “ligand-induced DMR signal” value is “typical Gs-type DMR signal”. As for `CN(C)CCC=C1c2ccccc2CCc2ccccc21` [amitriptyline], the “effect on the epinephrine response” value in assay [6] (setting [8]) is “little effect”. As for `CC(C)(C)c1ccc(C(O)CCCN2CCC(C(O)(c3ccccc3)c3ccccc3)CC2)cc1` (centres unmarked) [terfenadine], the “ligand-induced DMR signal” value in assay [2] (setting [7]) was “did not lead to any DMR signal”. Turning to `Clc1ccc2c(c1)C(N1CCNCC1)=Nc1ccccc1O2` [amoxapine], the “effect on the epinephrine response” value in assay [6] (setting [8]) is “little effect”.

Turning to `CC(C)(C)NCC(O)COc1cccc2[nH]c(=O)[nH]c12` (racemic) [(±)CGP12177], in assay [2] (setting [7]), the “ligand-induced DMR signal” value was “Gs-like DMR which only consists of the prolonged P-DMR event without the initial N-DMR event”. On to `CC(C)NCC(O)COc1ccc(CCOCC2CC2)cc1` (centres unmarked) [betaxolol], for which, in assay [5] (setting [8]), the “effect on the histamine response” value is listed as “little impact”. Moreover, in assay [2] (setting [7]), the “ligand-induced DMR signal” value was “did not result in any apparent DMR signals”. On to `CC(C)(C)NC[C@H](O)COc1nsnc1N1CCOCC1` [S(−)-timolol], for which the “ligand-induced DMR signal” value in assay [2] (setting [7]) is “did not result in any apparent DMR signals”. As to (S)-(−)-propafenone, in assay [2] (setting [7]), the “ligand-induced DMR signal” value was “did not result in any apparent DMR signals”. Besides, in assay [6] (setting [8]), the “effect on the epinephrine response” value is listed as “inhibited or partially attenuated”. Turning to `CN(C)CCOC(C)(c1ccccc1)c1ccccn1` (centres unmarked) [doxylamine], the “effect on the histamine response” value in assay [5] (setting [8]) was “completely or almost completely attenuated”. For the same compound, the “ligand-induced DMR signal” value in assay [2] (setting [7]) is reported as “did not lead to any DMR signal”. As for `CC(C)NCC(O)c1ccc(NS(C)(=O)=O)cc1` (racemic) [(±)-Sotalol], the “ligand-induced DMR signal” value in assay [2] (setting [7]) is “did not result in any apparent DMR signals”. Regarding S(−)pindolol, the “ligand-induced DMR signal” value in assay [2] (setting [7]) was “Gs-like DMR which only consists of the prolonged P-DMR event without the initial N-DMR event”. For the compound `C=CCc1ccccc1OCC(O)CNC(C)C` (centres unmarked) [alprenolol], the “effect on the histamine response” value in assay [5] (setting [8]) is reported as “little impact”. In addition, the “ligand-induced DMR signal” value in assay [2] (setting [7]) is “did not result in any apparent DMR signals”. `CN(C)CCC(c1ccc(Br)cc1)c1ccccn1` (racemic) [(±)-brompheniramine]: the “effect on the DMR signal induced” value in assay [1] is reported as “completely inhibited”. In addition, the “effect on the histamine response” value in assay [5] is “completely or almost completely attenuated”. In addition, in assay [2] (setting [7]), the “ligand-induced DMR signal” value was “did not lead to any DMR signal”. For `CNCCC=C1c2ccccc2CCc2ccccc21` [nortriptyline], the “effect on the epinephrine response” value in assay [6] was “little effect”. In the case of `c1cc(CN2CCCCC2)cc(OCCCNc2nc3ccccc3s2)c1` [SKF95282], the “ligand-induced DMR signal” value in assay [2] (setting [7]) is “DMR that was similar to pindolol”. The “effect on the epinephrine response” value in assay [6] (setting [8]) is recorded as “partial desensitization”. For the compound (±)-ephedrine, in assay [2] (A431 cells), the “identification of beta-adrenoceptor agonists as hits in the agonist screen” value is “false negative”. For the compound `CN(C)CCN(Cc1cccs1)c1ccccn1` [methapyrilene], the “ligand-induced DMR signal” value in assay [2] (setting [7]) is recorded as “did not lead to any DMR signal”. For the compound `CN1CCC[C@@H]1CCO[C@](C)(c1ccccc1)c1ccc(Cl)cc1` [clemastine], the “ligand-induced DMR signal” value in assay [2] (setting [7]) is recorded as “did not lead to any DMR signal”.

In the case of `CN(C)CCC(c1ccccc1)c1ccccn1` (centres unmarked) [pheniramine], the “effect on the histamine response” value in assay [5] (setting [8]) is “partial inhibition”. Further, the “ligand-induced DMR signal” value in assay [2] (setting [7]) was “did not lead to any DMR signal”. `CC(C)NC[C@H](O)COc1cccc2ccccc12` [(S)-propranolol]: in assay [2] (setting [7]), the “ligand-induced DMR signal” value is reported as “did not result in any apparent DMR signals”.

`Clc1ccc(Cn2c(CN3CCCC3)nc3ccccc32)cc1` [clemizole]: in assay [1], the “effect on the DMR signal induced” value is “completely inhibited”. Further, in assay [5] (setting [8]), the “effect on the histamine response” value is given as “completely or almost completely attenuated”. In addition, the “ligand-induced DMR signal” value in assay [2] (setting [7]) is recorded as “did not lead to any DMR signal”. `CC(CN1c2ccccc2Sc2ccccc21)N(C)C` (centres unmarked) [promethazine]: the “ligand-induced DMR signal” value in assay [2] (setting [7]) was “did not lead to any DMR signal”. In the case of `Cc1ccc(/C(=C\CN2CCCC2)c2ccccn2)cc1` [triprolidine], in assay [1], the “effect on the DMR signal induced” value is reported as “completely inhibited”. Moreover, in assay [5] (setting [8]), the “effect on the histamine response” value is on record as “completely or almost completely attenuated”. Besides, in assay [2] (setting [7]), the “ligand-induced DMR signal” value is on record as “did not lead to any significant DMR signal”.

On to `COCCc1ccc(OCC(O)CNC(C)C)cc1` (racemic) [(±)-metoprolol], for which the “ligand-induced DMR signal” value in assay [2] (setting [7]) is recorded as “did not result in any apparent DMR signals”. For `CN(C)CCCCSC(=N)N` [SKF91488], in assay [1], the “effect on the DMR signal induced” value is “did not have obvious impact”.

Take `CCCCc1oc2ccccc2c1C(=O)c1cc(I)c(OCCN(CC)CC)c(I)c1` [amiodarone]: in assay [2] (A431 cells), the “identification of beta-adrenoceptor agonists as hits in the agonist screen” value is reported as “false negative”.
